Laboratory results from patent publication EP2549976B1, “SKIN-FRIENDLY ACTIVE INGREDIENT COMBINATION TO COMBAT ACNE” (Beiersdorf AG, priority 2010, dated 2011).

Legend:
P. acnes [1] = settings: 0,2 % 1,2-Decandiol alone or combined with 1 % Milchsäure, from EP 1598064 A1; cited from earlier work
P.acnes = assay: Suspension test: decline of P. acnes in the formulations after 1 h, 6 h and 24 h (colony count); type: cell-based, Propionibacterium acnes; settings: for antimikrobielle Wirksamkeit gegen P.acnes: result in words, suspension test, formulations as composed
Protocol: Die antimikrobielle Wirksamkeit der erfindungsgemäßen Kombinationen gegen P. acnes wurde zum Vergleich mit verschiedenen Formulierungen untersucht. Dazu wurde in einem Suspensionstest der Rückgang der P.acnes nach 1 h, 6h und 24h beobachtet. Dazu wurden wenige Einzelkolonien einer P.acnes - Kultur in 10mL anaerobem Medium im Impedanzgerät mit dem Programm PR37NT herangezogen. Nach der Wachstumsphase von ca. 18 Stunden wird zur Kontrolle der Keimzahl die OD gemessen, die etwa zwischen 0,3 - 0,5 liegen sollte. Für den Versuch wurden 100µL der gewachsene Kolonie und 100µL autoklaviertes Wasser zu 800mg der zu prüfenden Formulierung gegeben. Die Tests wurden manuell durchgeführt. Zwischen den Abnahmen werden die Proben unter anaeroben Bedingungen (Topf) gelagert. Die Proben wurden jeweils zum Zeitpunkt 1h, 6h und 24h genommen und auf den entsprechenden Agarplatten ausplattiert. Die Platten werden unter anaeroben Bedingungen (Topf) bei 37°C bebrütet. Nach 5 Tagen wurde die Keimzahl bestimmt. Die Abbildungen 1 und 2 zeigen die ermittelten Ergebnisse. Darin umfassen die Formulierung wie folgt • A: 0,5 Gew.% Licochalcone A • B: 0,5 Gew.% Licochalcone A und 0,3 Gew.% 1,2 Decandiol • C: 0,3 Gew.% 1,2 Decandiol • D: 0,5 Gew.% Licochalcone A, 0,3 Gew.% 1,2 Decandiol und 2 Gew.% Carnitin • E: 0,5 Gew.% Licochalcone A, 0,2 Gew.% 1,2 Decandiol und 2 Gew.% Carnitin • F: 0,5 Gew.% Licochalcone A, 0,1 Gew.% 1,2 Decandiol und 2 Gew.% Carnitin • G: 0,3 Gew.%-1,2 Decandiol und 2 Gew.% Carnitin • H: 0,2 Gew.% 1,2 Decandiol und 2 Gew.% Carnitin • I: 0,1 Gew.% 1,2 Decandiol und 2 Gew.% Carnitin

P. acnes [2] = settings: gegenüber P. acnes; cited from earlier work

Structure (SMILES) | antibakterielle Wirkung im Suspensionstest (P. acnes [1]) | Zellzahl reduziert um Faktor (P.acnes; 0,3% Decandiol allein) | antimikrobielle Wirksamkeit gegen P.acnes (P.acnes) | MHK-Werte (P. acnes [2]) | Reduktionsfaktor (P.acnes; 0,5% Licochalcone A allein, nach 24h)
CCCCCCCCC(O)CO (stereo not shown) [1,2-Decandiol] | so gut wie keine antibakterielle Wirkung | 4158 | nur eine schwache antimikrobielle Wirksamkeit |  | 
CC[C@H]1OC(=O)[C@H](C)[C@@H](O[C@H]2C[C@@](C)(OC)[C@@H](O)[C@H](C)O2)[C@H](C)[C@@H](O[C@@H]2O[C@H](C)C[C@H](N(C)C)[C@H]2O)[C@](C)(O)C[C@@H](C)C(=O)[C@H](C)[C@@H](O)[C@]1(C)O [Erythromycin] |  |  |  | < 1 pmm | 
C=CC(C)(C)c1cc(/C=C/C(=O)c2ccc(O)cc2)c(OC)cc1O [Licochalcone A] |  |  | keine antimikrobielle Wirksamkeit |  | 41
CN(C)[C@@H]1C(O)=C(C(N)=O)C(=O)[C@@]2(O)C(O)=C3C(=O)c4c(O)cccc4[C@@](C)(O)[C@H]3C[C@@H]12 [Tetracyclin] |  |  |  | < 1 pmm | 
